# Values of other authors, collected in patent US20170022153A1, “FUMARATE COMPOUNDS, PHARMACEUTICAL COMPOSITIONS THEREOF, AND METHODS OF USE” (priority 2015, published 2017).
smiles,measurement,value
"COC(=O)/C=C/C(=O)OC [DMF, dimethylfumarate]",aqueous solubility,poor
